Patent US10787447B2, “Pharmaceutical compounds” (Heptares Therapeutics Limited, priority 2018, dated 2020)
Read-outs that look alike come from different tables or passages of the source.

Assays:
Format in all cases: cell-based
[1] = target: T1, human muscarinic M1 receptor (Homo sapiens, UniProt P11229); experiment: Alphascreen Surefire phospho-ERK1/2 functional assay, M1; conditions: for % Emax cf. ACh, M1 / Emax: Emax relative to ACh; for EC50: phospho-ERK1/2; for Emax: CHO, read-out: % Emax cf. ACh, M1, CHO cells stably expressing human M1
T1 sequence (P11229 1-460): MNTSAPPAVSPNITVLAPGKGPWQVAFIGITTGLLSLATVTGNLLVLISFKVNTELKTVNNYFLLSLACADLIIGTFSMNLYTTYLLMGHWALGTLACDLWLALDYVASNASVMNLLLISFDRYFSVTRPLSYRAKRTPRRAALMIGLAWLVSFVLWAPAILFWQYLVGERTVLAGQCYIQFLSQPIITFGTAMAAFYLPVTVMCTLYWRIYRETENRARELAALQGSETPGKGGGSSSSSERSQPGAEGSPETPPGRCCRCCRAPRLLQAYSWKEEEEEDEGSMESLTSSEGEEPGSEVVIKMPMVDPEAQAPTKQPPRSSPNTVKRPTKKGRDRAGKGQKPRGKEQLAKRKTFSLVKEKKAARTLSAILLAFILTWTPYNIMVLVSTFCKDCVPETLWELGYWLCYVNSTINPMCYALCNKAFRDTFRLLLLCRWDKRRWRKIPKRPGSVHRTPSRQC
Experimental: (§1) Functional assays were performed using the Alphascreen Surefire phospho-ERK1/2 assay (Crouch & Osmond, Comb. Chem. High Throughput Screen, 2008). ERK1/2 phosphorylation is a downstream consequence of both Gq/11 and Gi/o protein coupled receptor activation, making it highly suitable for the assessment of M1, M3 (Gq/11 coupled) and M2, M4 receptors (Gi/o coupled), rather than using different assay formats for different receptor subtypes. CHO cells stably expressing the human muscarinic M1, M2, M3 or M4 receptor were plated (25K/well) onto 96-well tissue culture plates in MEM-alpha+10% dialysed FBS. Once adhered, cells were serum-starved overnight. Agonist stimulation was performed by the addition of 5 μL agonist to the cells for 5 min (37° C.). Media was removed and 50 μL of lysis buffer added. After 15 min, a 4 μL sample was transferred to 384-well plate and 7 μL of detection mixture added.
For the vast majority of examples at least two diastereomers exist and these have been separated, unless otherwise stated, using the techniques of reversed phase HPLC, chiral HPLC or chiral SFC. Isomer assignment (Isomer 1, Isomer 2, etc.) is based on the retention time of the compound using the separation technique that was performed in the final purification step. By implication, this could be reversed phase HPLC, chiral HPLC or chiral SFC retention time, and this will vary from compound to compound.

[2] = target: T2, human muscarinic M3 receptor (Homo sapiens, UniProt P20309); experiment: Alphascreen Surefire phospho-ERK1/2 functional assay, M3; conditions: for % Emax cf. ACh, M3: CHO cells stably expressing human M3, Emax relative to ACh
T2 construct: expressed in transfected cells
Experimental: as §1, with “ERK1/2” for “Functional assays were performed using the Alphascreen Surefire phospho-ERK1/2 assay (Crouch & Osmond, Comb. Chem. High Throughput Screen, 2008). ERK1/2”
(§2) Isomer assignment (Isomer 1, Isomer 2, etc.) is based on the retention time of the compound using the separation technique that was performed in the final purification step. By implication, this could be reversed phase HPLC, chiral HPLC or chiral SFC retention time, and this will vary from compound to compound.

[3] = target: T3, human muscarinic M4 receptor (Homo sapiens, UniProt P08173); experiment: Alphascreen Surefire phospho-ERK1/2 functional assay, M4; conditions: for EC50: phospho-ERK1/2
T3 sequence (P08173 1-479): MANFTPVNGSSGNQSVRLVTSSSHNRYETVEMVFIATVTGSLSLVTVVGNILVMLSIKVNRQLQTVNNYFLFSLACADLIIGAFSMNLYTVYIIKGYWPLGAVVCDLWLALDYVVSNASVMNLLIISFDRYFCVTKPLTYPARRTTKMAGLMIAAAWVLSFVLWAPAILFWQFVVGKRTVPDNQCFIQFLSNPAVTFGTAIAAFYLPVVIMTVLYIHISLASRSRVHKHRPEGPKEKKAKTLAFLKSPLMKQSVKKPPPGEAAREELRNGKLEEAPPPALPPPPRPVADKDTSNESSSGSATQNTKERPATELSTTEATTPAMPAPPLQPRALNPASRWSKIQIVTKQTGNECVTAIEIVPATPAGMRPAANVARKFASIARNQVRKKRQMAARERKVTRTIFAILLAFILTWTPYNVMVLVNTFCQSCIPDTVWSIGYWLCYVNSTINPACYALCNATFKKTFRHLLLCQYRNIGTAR
Experimental: as §1, with “ERK1/2” for “Functional assays were performed using the Alphascreen Surefire phospho-ERK1/2 assay (Crouch & Osmond, Comb. Chem. High Throughput Screen, 2008). ERK1/2”
as §2

[4] = target: T4, human muscarinic M2 receptor (Homo sapiens, UniProt P08172); experiment: Alphascreen Surefire phospho-ERK1/2 functional assay, M2; conditions: for % Emax cf. ACh, M2: CHO cells stably expressing human M2; for EC50: pEC50 M2, CHO cells stably expressing human M2, phospho-ERK1/2
T4 sequence (P08172 1-466): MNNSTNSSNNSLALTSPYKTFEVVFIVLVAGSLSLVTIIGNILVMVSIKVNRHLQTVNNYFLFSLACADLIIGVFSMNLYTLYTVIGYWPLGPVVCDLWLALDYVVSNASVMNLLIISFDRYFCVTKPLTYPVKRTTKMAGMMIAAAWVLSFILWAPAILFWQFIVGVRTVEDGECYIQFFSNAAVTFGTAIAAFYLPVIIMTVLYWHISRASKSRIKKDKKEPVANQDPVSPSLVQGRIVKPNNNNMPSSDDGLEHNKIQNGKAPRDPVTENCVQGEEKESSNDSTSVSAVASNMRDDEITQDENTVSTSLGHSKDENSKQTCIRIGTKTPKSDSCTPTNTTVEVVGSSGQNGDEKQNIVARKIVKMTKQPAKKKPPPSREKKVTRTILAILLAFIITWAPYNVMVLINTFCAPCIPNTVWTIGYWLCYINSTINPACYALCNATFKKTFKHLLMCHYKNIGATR
Experimental: as §1, with “ERK1/2” for “Functional assays were performed using the Alphascreen Surefire phospho-ERK1/2 assay (Crouch & Osmond, Comb. Chem. High Throughput Screen, 2008). ERK1/2”
as §2

[5] = pEC50 M1, CHO cells stably expressing human M1
[6] = pEC50 M4, CHO cells stably expressing human M4
[7] = CHO cells stably expressing human M4, Emax relative to ACh
[8] = CHO cells stably expressing human M4, read-out: pEC50 M4 (converted)

T2 sequence (P20309 whole entry): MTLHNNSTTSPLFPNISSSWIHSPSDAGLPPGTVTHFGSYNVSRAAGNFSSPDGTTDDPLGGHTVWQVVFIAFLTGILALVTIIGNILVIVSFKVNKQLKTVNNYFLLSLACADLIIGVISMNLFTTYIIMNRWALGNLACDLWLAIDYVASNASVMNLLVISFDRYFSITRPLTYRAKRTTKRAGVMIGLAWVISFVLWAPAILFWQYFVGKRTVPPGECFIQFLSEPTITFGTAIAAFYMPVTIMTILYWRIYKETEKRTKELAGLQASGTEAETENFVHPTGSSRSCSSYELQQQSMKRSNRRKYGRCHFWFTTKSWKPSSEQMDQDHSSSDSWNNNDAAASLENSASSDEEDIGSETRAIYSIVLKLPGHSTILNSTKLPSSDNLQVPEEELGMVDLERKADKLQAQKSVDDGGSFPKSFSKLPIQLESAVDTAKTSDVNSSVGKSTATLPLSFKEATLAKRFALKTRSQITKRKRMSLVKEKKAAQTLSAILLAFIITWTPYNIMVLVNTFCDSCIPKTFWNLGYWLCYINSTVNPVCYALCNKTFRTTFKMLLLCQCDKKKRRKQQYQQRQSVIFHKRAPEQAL

With CCOC(=O)N1C2COCC1CC(N1CCC(N(CC3(C)CC3)C(C)=O)CC1)C2 (single isomer, unassigned) [Example 6-3 Isomer 2] the “% Emax cf. ACh, M1” value ([1]; CHO cells stably expressing human M1, listed as 6-3 Isomer 2) was 90%, the EC50 [1, 5] was 195 nM and the “% Emax cf. ACh, M3” value ([2]; listed as 6-3 Isomer 2) was 9%. The “% Emax cf. ACh, M4” value ([3]; CHO cells stably expressing human M4, Emax relative to ACh, listed as 6-3 Isomer 2) was 44%, the EC50 [3, 6] was 389 nM and the “% Emax cf. ACh, M2” value ([4]; Emax relative to ACh, listed as 6-3 Isomer 2) was 11%. The EC50 [4] was > 20000 nM.
For CCOC(=O)N1C2COCC1CC(N1CCC(N3CCCCC3=O)CC1)C2 (single isomer, unassigned) [Example 6-6 Isomer 2, Ethyl 7-(2-oxo-1,4′-bipiperidin-1′-yl)-3-oxa-9-azabicyclo[3.3.1]nonane-9-carboxylate], the “% Emax cf. ACh, M1” value ([1]; CHO cells stably expressing human M1, listed as 6-6 Isomer 2) was 50%, the EC50 [1, 5] was 977 nM and the “% Emax cf. ACh, M3” value ([2]; listed as 6-6 Isomer 2) was 3%. For the same molecule, the “% Emax cf. ACh, M4” value ([3]; CHO cells stably expressing human M4, Emax relative to ACh, listed as 6-6 Isomer 2) was 48%, the EC50 [3, 6] was 81.3 nM and the “% Emax cf. ACh, M2” value ([4]; Emax relative to ACh, listed as 6-6 Isomer 2) was 6%. The EC50 [4] was > 20000 nM.
CCOC(=O)N1C2COCC1CC(N1CCC3(CC1)CC3)C2 (single isomer, unassigned) [Example 5-1 Isomer 1, Ethyl 7-(6-azaspiro[2.5]oct-6-yl)-3-oxa-9-azabicyclo[3.3.1]nonane-9-carboxylate] was tested, and the Emax [1] was 47%, the EC50 [1, 5] was 72.4 nM and the “% Emax cf. ACh, M3” value ([2]; listed as 5-1 Isomer 1) was 0%. For the same molecule, the EC50 ([2]; pEC50 M3, CHO cells stably expressing human M3, phospho-ERK1/2) was > 20000 nM, the “% Emax cf. ACh, M4” value ([3]; CHO cells stably expressing human M4, Emax relative to ACh, listed as 5-1 Isomer 1) was 13% and the EC50 [3, 6] was > 20000 nM. The Emax ([4]; CHO, read-out: % Emax cf. ACh, M2, CHO cells stably expressing human M2, Emax relative to ACh) was 8% and the EC50 [4] was > 20000 nM.
For CC(=O)OCC[N+](C)(C)C [ACh], the “% Emax cf. ACh, M3” value [2] was 115% and the “% Emax cf. ACh, M4” value [3, 7] was 110%.
For CCOC(=O)N1C2COCC1CC(N1CCC(c3cccnc3OC)CC1)C2 (single isomer, unassigned) [Example 2-2 Isomer 2, Ethyl 7-[4-(2-methoxypyridin-3-yl)piperidin-1-yl]-3-oxa-9-azabicyclo[3.3.1]nonane-9-carboxylate], the “% Emax cf. ACh, M1” value ([1]; CHO cells stably expressing human M1, listed as 2-2 Isomer 2) was 10%, the “% Emax cf. ACh, M3” value [2] was 5% and the “% Emax cf. ACh, M4” value ([3]; CHO cells stably expressing human M4, Emax relative to ACh, listed as 2-2 Isomer 2) was 37%. For the same molecule, the EC50 [3, 6] was 112 nM and the “% Emax cf. ACh, M2” value ([4]; Emax relative to ACh) was 3%.
For CCOC(=O)N1C2COCC1CC(N1CCC(N(CC3(C)CCC3)C(C)=O)CC1)C2 (single isomer, unassigned) [Example 6-4 Isomer 1], the “% Emax cf. ACh, M1” value ([1]; CHO cells stably expressing human M1, listed as 6-4 Isomer 1) was 103%, the EC50 [1, 5] was 14.5 nM and the “% Emax cf. ACh, M4” value ([3]; CHO cells stably expressing human M4, Emax relative to ACh, listed as 6-4 Isomer 1) was 80%. The EC50 [3, 6] was 42.7 nM, the “% Emax cf. ACh, M2” value ([4]; Emax relative to ACh, listed as 6-4 Isomer 1) was 33% and the EC50 [4] was 363 nM.
CCOC(=O)N1C2COCC1CC(N1CCC(C(=O)NCC(C)C)CC1)C2 (single isomer, unassigned) [Example 7-2 Isomer 1, Ethyl 7-{4-[(2-methylpropyl)carbamoyl]piperidin-1-yl}-3-oxa-9-azabicyclo[3.3.1]nonane-9-carboxylate] was tested, and the Emax [1] was 96%, the EC50 [1, 5] was 79.4 nM and the Emax ([3]; CHO, read-out: % Emax cf. ACh, M4, CHO cells stably expressing human M4, Emax relative to ACh) was 72%. The EC50 [3, 6] was 457 nM.
With CCOC(=O)N1C2COCC1CC(N1CCC(C#N)(c3ccccn3)CC1)C2 (single isomer, unassigned) [Example 3-1 Isomer 2, Ethyl 7-[4-cyano-4-(pyridin-2-yl)piperidin-1-yl]-3-oxa-9-azabicyclo[3.3.1]nonane-9-carboxylate] the “% Emax cf. ACh, M1” value ([1]; CHO cells stably expressing human M1) was 79%, the “% Emax cf. ACh, M4” value [3, 7] was 78% and the EC50 [3, 8] was 309 nM.
With CCOC(=O)N1C2COCC1CC(N1CCC3(CC1)C(=O)Nc1ccccc13)C2 (single isomer, unassigned) [Example 5-5 Isomer 2, Ethyl 7-(2-oxo-1,2-dihydro-1′H-spiro[indole-3,4′-piperidin]-1′yl)-3-oxa-9-azabicyclo[3.3.1]nonane-9-carboxylate] the “% Emax cf. ACh, M1” value ([1]; CHO cells stably expressing human M1, listed as 5-5 Isomer 2) was 108%, the EC50 [1, 5] was 53.7 nM and the “% Emax cf. ACh, M4” value [3, 7] was 108%. The EC50 [3, 6] was 8.51 nM, the “% Emax cf. ACh, M2” value ([4]; Emax relative to ACh, listed as 5-5 Isomer 2) was 67% and the EC50 [4] was 75.9 nM.
For CCOC(=O)N1C2COCC1CC(N1CCC(C(=O)NC3(C)CCC3)CC1)C2 (single isomer, unassigned) [Example 7-1 Isomer 2, Ethyl 7-{4-[(1-methylcyclobutyl)carbamoyl]piperidin-1-yl}-3-oxa-9-azabicyclo[3.3.1]nonane-9-carboxylate], the “% Emax cf. ACh, M1” value ([1]; CHO cells stably expressing human M1, listed as 7-1 Isomer 2) was 62%, the EC50 ([1]; CHO cells stably expressing human M1, read-out: pEC50 M1 (converted)) was 1740 nM and the “% Emax cf. ACh, M4” value ([3]; CHO cells stably expressing human M4, Emax relative to ACh, listed as 7-1 Isomer 2) was 54%. The EC50 [3, 8] was > 20000 nM.
